Test results from ChEMBL document CHEMBL1201862, “PubChem BioAssay data set” (2004).
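Assay format: 96-well plates, 48-hour exposure. GI50 marks 50% less growth.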 Calls of active or inactive are those of the source. Cut-off read from the data, not from the text of the source: active = GI50 up to about 1.1 µM and inactive = higher.

Assays:
Test in all cases: NCI tumour cell line growth inhibition, 48 h
Malme-3M = tested on: Malme-3M
SK-MEL-5 = tested on: SK-MEL-5
SNB-75 = tested on: SNB-75
IGROV-1 = tested on: IGROV-1
OVCAR-3 = tested on: OVCAR-3
SN12C = tested on: SN12C
SW-620 = tested on: SW-620
UACC-62 = tested on: UACC-62
OVCAR-8 = tested on: OVCAR-8
CAKI-1 = tested on: CAKI-1
EKVX = tested on: EKVX
SK-MEL-2 = tested on: SK-MEL-2
OVCAR-4 = tested on: OVCAR-4
ACHN = tested on: ACHN
M14 = tested on: M14
NCI-H460 = tested on: NCI-H460
U-251 = tested on: U-251
SK-MEL-28 = tested on: SK-MEL-28
NCI-H23 = tested on: NCI-H23
RXF 393 = tested on: RXF 393

Measured: GI50

N#C/C(=C1/Sc2c(nc[nH]c2=O)N1c1ccccc1)c1nc2ccccc2[nH]1
inactive: Malme-3M > 100 µM | SK-MEL-5 > 100 µM | SNB-75 26 µM | IGROV-1 > 100 µM | OVCAR-3 > 100 µM | SN12C > 100 µM | SW-620 > 100 µM | UACC-62 > 100 µM | OVCAR-8 > 100 µM | CAKI-1 > 100 µM | EKVX > 100 µM | SK-MEL-2 > 100 µM | OVCAR-4 > 100 µM | ACHN > 100 µM | M14 > 100 µM | NCI-H460 > 100 µM | U-251 > 100 µM | SK-MEL-28 > 100 µM | NCI-H23 > 100 µM

CCOC(=O)c1c(N=C(S)Nc2ccccc2)sc2c1CCN(C)C2
inactive: SK-MEL-5 > 100 µM | IGROV-1 > 100 µM | OVCAR-3 > 100 µM | SN12C > 100 µM | UACC-62 > 100 µM | OVCAR-8 > 100 µM | CAKI-1 > 100 µM | EKVX > 100 µM | SK-MEL-2 > 100 µM | ACHN > 100 µM | M14 > 100 µM | NCI-H460 > 100 µM | NCI-H23 > 100 µM | RXF 393 > 100 µM

Cn1cc(NC(=O)[C@H]2CCC(N)=N2)cc1C(=O)NCCC(=N)N
inactive: Malme-3M > 100 µM | SNB-75 > 100 µM | IGROV-1 > 100 µM | OVCAR-3 > 100 µM | SN12C > 100 µM | SW-620 > 100 µM | UACC-62 > 100 µM | OVCAR-8 > 100 µM | EKVX > 100 µM | SK-MEL-2 > 100 µM | ACHN > 100 µM | M14 > 100 µM | NCI-H460 > 100 µM | U-251 > 100 µM | SK-MEL-28 > 100 µM | NCI-H23 > 100 µM | RXF 393 > 100 µM

c1ccc2c(c1)CCCC/C2=N/OCC1CO1 (configuration not stated)
inactive: Malme-3M 67.6 µM | SK-MEL-5 35.5 µM | SNB-75 54.5 µM | IGROV-1 50.8 µM | SN12C 51.5 µM | SW-620 63.4 µM | OVCAR-8 45.7 µM | EKVX 56.9 µM | SK-MEL-2 > 100 µM | ACHN 99.1 µM | NCI-H460 80.7 µM | U-251 72.3 µM | SK-MEL-28 61 µM | NCI-H23 41.8 µM | RXF 393 53.6 µM

COC(=O)C(C/C=C(\C)c1ccc(Cl)cc1)C(C)=O (configuration not stated)
inactive: Malme-3M 40.3 µM | SK-MEL-5 21.3 µM | SNB-75 29.2 µM | IGROV-1 53.6 µM | OVCAR-3 32.4 µM | SN12C 56 µM | SW-620 50.9 µM | UACC-62 38.5 µM | OVCAR-8 52 µM | EKVX 54.5 µM | SK-MEL-2 5.53 µM | OVCAR-4 27.2 µM | NCI-H460 > 100 µM | U-251 26.1 µM | SK-MEL-28 61.5 µM | NCI-H23 35.5 µM | RXF 393 26.7 µM

N#CCc1c(F)c(F)c(F)c(F)c1F
inactive: Malme-3M > 100 µM | SK-MEL-5 54.6 µM | IGROV-1 > 100 µM | SN12C > 100 µM | SW-620 > 100 µM | UACC-62 > 100 µM | OVCAR-8 > 100 µM | CAKI-1 > 100 µM | EKVX > 100 µM | ACHN > 100 µM | M14 > 100 µM | U-251 > 100 µM | SK-MEL-28 > 100 µM | NCI-H23 > 100 µM | RXF 393 > 100 µM

CC1CC/C(=C\c2ccc(Cl)cc2)C(=O)/C1=C\c1ccc(Cl)cc1 (configuration not stated)
inactive: SK-MEL-5 20.4 µM | SNB-75 49.2 µM | IGROV-1 22.4 µM | SN12C 30.8 µM | SW-620 41.3 µM | UACC-62 25.4 µM | OVCAR-8 30.1 µM | CAKI-1 20.3 µM | EKVX 26.4 µM | SK-MEL-2 20.4 µM | ACHN 32.9 µM | M14 24 µM | U-251 39.9 µM | SK-MEL-28 53.1 µM | RXF 393 33.9 µM

CC1CN=C(N(C(=O)Nc2ccccc2)C2CCCCC2)S1 (configuration not stated)
inactive: Malme-3M 16.3 µM | SK-MEL-5 15.1 µM | SNB-75 12.6 µM | IGROV-1 17.8 µM | OVCAR-3 17.7 µM | SN12C 16.6 µM | SW-620 14.1 µM | OVCAR-8 25.9 µM | CAKI-1 12.4 µM | EKVX 15.7 µM | SK-MEL-2 15.2 µM | OVCAR-4 14.5 µM | ACHN 13.5 µM | NCI-H460 16.6 µM | U-251 16.9 µM | SK-MEL-28 12.4 µM | NCI-H23 16.4 µM

OCCCC(O)(c1ccccc1)c1ccccc1
inactive: Malme-3M > 100 µM | SK-MEL-5 > 100 µM | SNB-75 > 100 µM | IGROV-1 > 100 µM | OVCAR-3 > 100 µM | SN12C > 100 µM | SW-620 > 100 µM | UACC-62 > 100 µM | OVCAR-8 > 100 µM | EKVX > 100 µM | SK-MEL-2 > 100 µM | OVCAR-4 > 100 µM | ACHN > 100 µM | M14 > 100 µM | NCI-H460 > 100 µM | U-251 > 100 µM | SK-MEL-28 > 100 µM | NCI-H23 > 100 µM | RXF 393 > 100 µM

CCO[C@]12C[C@H](OC)[C@@]3(O)CC(C1[C@H]3O)C13C4C2[C@H](OC)C1[C@](COC)(CN4CC)[C@H](O)C[C@@H]3OC (some centres not stated)
inactive: SK-MEL-5 > 100 µM | SNB-75 > 10 µM | IGROV-1 > 100 µM | SN12C > 100 µM | SW-620 > 100 µM | UACC-62 > 100 µM | OVCAR-8 > 100 µM | EKVX > 100 µM | OVCAR-4 > 100 µM | ACHN 66.2 µM | M14 > 100 µM | NCI-H460 > 100 µM | SK-MEL-28 > 100 µM | NCI-H23 > 100 µM | RXF 393 > 100 µM

CCCCCCCSc1nc2c(C(=O)OCC)ncn2c2ccccc12
inactive: Malme-3M > 100 µM | IGROV-1 > 100 µM | OVCAR-3 > 100 µM | SN12C > 100 µM | SW-620 > 100 µM | UACC-62 > 100 µM | OVCAR-8 > 100 µM | EKVX > 100 µM | SK-MEL-2 > 100 µM | ACHN > 100 µM | M14 > 100 µM | NCI-H460 > 100 µM | U-251 > 100 µM | SK-MEL-28 > 100 µM | NCI-H23 > 100 µM | RXF 393 > 100 µM

C=C1[C@@H]2CCC(C)(C)[C@H]1CCC(=O)[C@@H]2C(=O)OC
inactive: Malme-3M > 100 µM | SK-MEL-5 > 100 µM | IGROV-1 > 100 µM | OVCAR-3 > 100 µM | SN12C > 100 µM | SW-620 > 100 µM | UACC-62 > 100 µM | OVCAR-8 > 100 µM | EKVX > 100 µM | SK-MEL-2 > 100 µM | OVCAR-4 > 100 µM | ACHN > 100 µM | M14 > 100 µM | NCI-H460 > 100 µM | U-251 > 100 µM | SK-MEL-28 > 100 µM | NCI-H23 > 100 µM | RXF 393 > 100 µM
